Measured values: paper PMC10878854, “Identification, structural characterization, and molecular dynamic simulation of ACE inhibitory peptides in whey hydrolysates from Chinese Rushan cheese by-product” (Food Chemistry: X, 2024)
No end group written: not given here.

Test system: not given
Experiment: not given
Settings: not given
In the case of H-FDRPFL-OH, the β-sheet content is reported as 38.3%.
For H-KWEKPF-OH, the β-sheet content was 38%.

Test system: not given
Experiment: not given
Settings: not given
Remark: another data set of the same source
In the case of H-FDRPFL-OH, the β-turn content is reported as 39.3%.
H-KWEKPF-OH showed a β-turn content of 41.7%.

Test system: not given
Experiment: not given
Settings: not given
Remark: another data set of the same source
Work on H-FDRPFL-OH yielded a α-helix content of 22.4%.
In the case of H-KWEKPF-OH, the α-helix content is reported as 20.2%.

Molecular target: T1, ACE (Oryctolagus cuniculus, UniProt P12822)
T1 sequence (P12822 34-1310): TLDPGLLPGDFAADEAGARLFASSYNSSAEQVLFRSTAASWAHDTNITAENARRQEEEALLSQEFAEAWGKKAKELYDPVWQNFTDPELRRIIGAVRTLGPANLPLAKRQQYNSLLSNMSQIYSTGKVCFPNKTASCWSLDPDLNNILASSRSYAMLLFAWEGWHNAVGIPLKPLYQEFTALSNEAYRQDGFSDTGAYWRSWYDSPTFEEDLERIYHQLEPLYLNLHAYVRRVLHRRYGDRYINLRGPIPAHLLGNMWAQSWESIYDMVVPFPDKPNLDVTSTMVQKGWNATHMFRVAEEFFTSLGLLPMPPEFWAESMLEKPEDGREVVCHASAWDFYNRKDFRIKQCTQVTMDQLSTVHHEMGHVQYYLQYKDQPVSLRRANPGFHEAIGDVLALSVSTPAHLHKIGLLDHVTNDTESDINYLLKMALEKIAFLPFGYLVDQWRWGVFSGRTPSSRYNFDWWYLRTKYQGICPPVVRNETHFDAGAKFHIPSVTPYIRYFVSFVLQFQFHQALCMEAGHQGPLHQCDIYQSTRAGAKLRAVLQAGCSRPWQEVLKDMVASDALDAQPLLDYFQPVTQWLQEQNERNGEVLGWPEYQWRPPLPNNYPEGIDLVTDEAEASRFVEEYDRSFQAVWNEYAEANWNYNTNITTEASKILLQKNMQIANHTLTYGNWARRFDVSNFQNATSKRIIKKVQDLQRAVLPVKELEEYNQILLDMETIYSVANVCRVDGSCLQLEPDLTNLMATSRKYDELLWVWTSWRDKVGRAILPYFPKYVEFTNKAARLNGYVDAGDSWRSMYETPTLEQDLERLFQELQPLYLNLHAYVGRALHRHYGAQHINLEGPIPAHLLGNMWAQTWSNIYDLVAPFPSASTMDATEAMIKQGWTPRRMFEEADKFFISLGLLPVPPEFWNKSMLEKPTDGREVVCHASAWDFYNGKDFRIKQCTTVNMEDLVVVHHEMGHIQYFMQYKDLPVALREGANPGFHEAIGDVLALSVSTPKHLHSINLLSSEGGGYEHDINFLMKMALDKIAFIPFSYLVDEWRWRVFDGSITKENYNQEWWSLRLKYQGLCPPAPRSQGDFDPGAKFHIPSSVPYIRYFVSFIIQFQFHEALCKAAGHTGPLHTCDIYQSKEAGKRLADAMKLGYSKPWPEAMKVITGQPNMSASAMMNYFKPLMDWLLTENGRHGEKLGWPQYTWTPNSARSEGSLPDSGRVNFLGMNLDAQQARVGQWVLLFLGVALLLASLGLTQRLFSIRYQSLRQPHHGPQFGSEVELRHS
Experiment: not given
Settings: ACEIPs with mixed inhibitory patterns; ref Chen et al., 2020; Xie et al., 2022; cited from earlier work
In the case of “LSGYGP [literature mixed-pattern ACEIP derived from tilapia]”, the ACE inhibition pattern is given as “mixed”.
In the case of “SLPEW [literature mixed-pattern ACEIP derived from alpha-lactalbumin]”, the ACE inhibition pattern is given as “mixed”.
For “VSLPEW [literature mixed-pattern ACEIP derived from alpha-lactalbumin]”, the ACE inhibition pattern is given as “mixed”.

Same assay, conditions: food-derived non-competitive ACEIPs; ref Xie et al., 2022; Paisansak et al., 2021; cited from earlier work
In the case of GVSLPEW, the ACE inhibition pattern is given as “non-competitive”.
For GYGGVSLPEW, the ACE inhibition pattern is listed as “non-competitive”.
For KIGSRSRFDVT, the ACE inhibition pattern is listed as “non-competitive”.
In the case of VGINYW, the ACE inhibition pattern is given as “non-competitive”.

Same assay, conditions: peptides derived from eel bone; ref Shao, 2022; cited from earlier work
For GGPGPSGPR, the “IC50 (ACE inhibitory activity)” value is given as 0.758 mg/mL.
In the case of GPAGPR, the “IC50 (ACE inhibitory activity)” value is given as 1.246 mg/mL.
In the case of GPIGPPGPR, the “IC50 (ACE inhibitory activity)” value is listed as 1.441 mg/mL.
In the case of GPMGPR, the “IC50 (ACE inhibitory activity)” value is listed as 2.247 mg/mL.
For GPSGAPGPR, the “IC50 (ACE inhibitory activity)” value is given as 1.022 mg/mL.
For PMGPR, the “IC50 (ACE inhibitory activity)” value is listed as 1.47 mg/mL.

Same assay, conditions: peptides derived from large yellow croaker; ref Li, 2021; cited from earlier work
In the case of LGYSF, the “IC50 (ACE inhibitory activity)” value is given as 0.51 mg/mL.
In the case of LLAGGW, the “IC50 (ACE inhibitory activity)” value is listed as 0.49 mg/mL.

Molecular target: T1, ACE
Experiment: In-vitro ACE inhibitory activity (HHL substrate, hippuric acid absorbance at 228 nm)
Assay type: biochemical
Settings: synthetic peptides; 5 mM HHL, 25 mU/mL ACE, 37 °C 30 min, absorbance 228 nm; calculated from regression equations; mean ± SD, n = 3
Procedure: ACE inhibitory activity of whey hydrolysate fractions with different MW was assessed by a method reported by [Cushman and Cheung (1971)]. In brief, 30 μL of whey hydrolysate fraction was added to 80 μL of 5 mM HHL and incubated at 37 °C for 10 min. Then, 20 μL of 25 mU/ mL ACE was added to the mixture. The reaction was performed at 37 °C for 30 min and then stopped by adding 250 μL of 1 M HCl. Subsequently, 1.7 mL of ethyl acetate was added to the mixture to extract the released hippuric acid. After vigorous stirring for 10 s, the samples were submitted to centrifugation (TLG20M, Changsha Maijiasen Instrument Equipment Co., Ltd., China) at 5,000 rcf at 4 °C for 15 min. Then 1.4 mL of the organic phase was transferred to a fresh test tube. Ethyl acetate was evaporated by placing samples in a boiling water bath. The residue was dissolved in 3 mL of deionized water, and absorbance was measured at 228 nm by enzyme marker (Multiskan FC, Thermo Fisher Scientific). The following formula was used to calculate ACE inhibition rate: ACE-inhibition rate\%:[1-(C-D)/(A-B)]×100% Where A represents the absorbance with ACE but without the sample; B the absorbance without ACE and the sample; C the absorbance in the presence of ACE and the sample; and D the absorbance with the sample but without ACE.
For DDFFHR [DDFFHR], the IC50 was greater than 1.2 mM.
Substance GKWEKPF [GKWEKPF] has an IC50 greater than 1.12 mM.
Work on YDFYPR [YDFYPR] yielded an IC50 greater than 1.16 mM.

Test system: not given
Experiment: not given
Settings: 90 % homology to known functional peptides; ref BIOPEP, EROP-Moscow, MBPDB databases; cited from earlier work
Description: Supplement mmc2.doc, table 1: Table S2. Bioactive peptides identified in Rushan cheese whey hydrolysates (RCWH). | column: Potential bioactive
For AVPYPQR, the Potential bioactive is given as “ACE inhibitor, Antimicrobial, Antioxidative”.
For DKIHPF, the Potential bioactive is listed as “ACE inhibitor”.
For DKVGINY, the Potential bioactive is given as “ACE inhibitor”.
For DKVGINYW, the Potential bioactive is listed as “ACE inhibitor”.
In the case of KVLPVPQK, the Potential bioactive is given as “ACE inhibitor, Antioxidative”.
For LKPTPEGDLE, the Potential bioactive is listed as “Dipeptidyl peptidase IV inhibitor”.
For MAIPPKK, the Potential bioactive is listed as “ACE inhibitor”.
In the case of PFPGPIPN, the Potential bioactive is given as “ACE inhibitor”.
In the case of SKVLPVPQ, the Potential bioactive is given as “ACE inhibitor”.
In the case of VYPFPGPI, the Potential bioactive is listed as “Antihypertensive”.
In the case of VYPFPGPIP, the Potential bioactive is listed as “Antihypertensive”.
In the case of YPFPGPI, the Potential bioactive is listed as “ACE inhibitor, Antioxidative, Anticancer”.
In the case of YPFPGPIP, the Potential bioactive is given as “ACE inhibitor, Antioxidative”.
